Test results: US8398987B2, “Use of platelet glycopeptide IIIa epitopes in the treatment of immune thrombocytopenic purpura” (The University Court of the University of Aberdeen, priority 2007, dated 2013)
Entries after “also recorded” stand apart in the source; their conditions may differ.

Key:
Type in all cases: cell-based, human
[1] = tested on: PBMC from healthy control donors; experiment: T cell proliferation assay, PBMC from healthy control donors
Text: (§1) The human platelet membrane GPIIIa amino acid sequence (Genebank Accession no: M35999) was synthesized (Pepceuticals, Nottingham, UK) as a complete panel of 86 15-mer peptides, overlapping by 5-10 amino acids (Table 3). Peptide purity was monitored by amino acid analysis and mass spectrometry as reported previously by Barker R N et al in Blood 1997; 90:2701-2715, Scott L et al in Blood 2000; 96:4011-4019 and Cairns L S et al in J Am Soc Nephrol 2003; 14:2801-2812. The peptides were used for stimulation of T cells at the previously determined optimum concentration of […] in culture.
(§2) The antigen mycobacterial purified protein derivative (PPD) (Statens Serumintitut, Denmark) was added to cultures at […] to stimulate positive control recall T cell responses. Concanavalin A (Con A) (Sigma, Poole, Dorset, UK) was used at […] as a positive control T cell mitogen.
Mononuclear cells were recovered from anti-coagulated samples of peripheral blood from AITP patients and control donors by density gradient centrifugation (Lymphoprep; Nycomed, Denmark). Cell viability determined by trypan blue exclusion was greater than 90% in all samples. […]

PBMC from AITP patients = experiment: T cell proliferation assay, PBMC from AITP patients stimulated with GPIIIa peptides; design: PBMC proliferation to control recall antigen or mitogen: dose or concentration left out as unconfirmed; conditions: for PBMC proliferation in serial samples: patient AITP22, three occasions over 56 weeks (presentation, 44 weeks, 56 weeks); for AITP Patients with PBMC Response to Peptide, No High Affinity DR Expressed: patients not expressing an HLA-DR type predicted to bind the peptide with high affinity; for AITP Patients with PBMC Response to Peptide, High Affinity DR Expressed: patients expressing an HLA-DR type predicted to bind the peptide with high affinity
Text: as §1, §2
Mononuclear cells were recovered from anti-coagulated samples of peripheral blood from AITP patients and control donors by density gradient centrifugation (Lymphoprep; Nycomed, Denmark). Cell viability determined by trypan blue exclusion was greater than 90% in all samples.
Assays of T cell proliferation were carried out, as described by Scott L et al in Blood 2000; 96:4011-4019, Cairns L S et al in J Am Soc Nephrol 2003; 14:2801-2812 and Sukati H et al in Transfusion 2005; 45:1165-1177, under culture conditions designed to favor responses by previously activated T cells, rather than primary responses. Briefly, PBMC were cultured at 1.25×10^6 cells per mL in Alpha Modification of Eagle's Medium (Sigma, Poole, Dorset, UK) supplemented with 5% autologous serum. Synthetic GPIIIa peptides or control stimuli were added to cultures, which were incubated at 37° C. in a humidified atmosphere of 95% air and 5% CO2. T cell proliferation was estimated from the incorporation of 3H-thymidine in triplicate […] samples withdrawn from the cultures 5 days after stimulation, when recall responses peak. Results are presented either as the mean counts per minute (CPM)±SD of the triplicate samples, or as a stimulation index (SI) expressing the ratio of mean CPM in stimulated versus unstimulated control cultures. An SI>3 is interpreted as a positive response.

[2] = tested on: HLA-class II molecules (HLA-DR, -DQ, -DP); experiment: HLA restriction of PBMC proliferating in response to GPIIIa peptides (blocking antibodies); conditions: PBMC from four AITP patients
Method: To determine the HLA Class II restriction of proliferating T cells, […] anti-DR, anti-DQ or anti-DP blocking monoclonal antibodies (Pharmingen, Oxon, UK) were added to replicate cultures before stimulation.
Dominant peptides 2(aa6-20), 47 (aa361-375), 53 (aa421-435) and 82 (aa711-725) were selected for these experiments and used to stimulate PBMC from four AITP patients, in the presence or absence of anti-DP, -DQ or DR. Representative results from one patient are illustrated in FIG. 7.

Row | Substance | stimulation of PBMC from control donors [1] | PBMC proliferation in serial samples (PBMC from AITP patients) | AITP Patients with PBMC Response to Peptide, No High Affinity DR Expressed (PBMC from AITP patients) | blocking of peptide-induced proliferation by anti-DP, -DQ or -DR [2] | Stimulatory Peptides (SI > 3) (PBMC from AITP patients; PBMC from patient AITP26) | PBMC proliferation to control recall antigen or mitogen (PBMC from AITP patients; PBMC from all patients and control donors) | AITP Patients with PBMC Response to Peptide, High Affinity DR Expressed (PBMC from AITP patients)
1 | ALLIWKLLITIHDRK (listed as Homo sapiens) [peptide 82, GPIIIa residues 711-725] | only dominant sequence to induce proliferation by Th cells from control donors; also recorded: more than one control donor | initially absent but appeared at later time points | AITP12 | blocked by at least one of the antibodies | – | – | –
2 | CECDDFSCVRYKGEM (listed as Homo sapiens) [compound 63, GPIIIa residues 521-535] | – | – | – | – | > 63 | – | –
3 | Concanavalin A [Con A, reference compound] | – | – | – | – | – | proliferated normally | –
4 | DDCVVRFQYYEDSSG (listed as Homo sapiens) [peptide 77, GPIIIa residues 661-675] | – | seen only in the second sample | AITP2,; also recorded: AITP8 | – | – | – | AITP11,; also recorded: AITP16,; also recorded: AITP22
5 | DLPEELSLSFNATCL (listed as Homo sapiens) [compound 47, GPIIIa residues 361-375] | – | initially absent but appeared at later time points | – | blocked by at least one of the antibodies | – | – | None
6 | FKDSLIVQVTFDCDC (listed as Homo sapiens) [compound 53, GPIIIa residues 421-435] | – | initially absent but appeared at later time points | AITP1,; also recorded: AITP8,; also recorded: AITP9,; also recorded: AITP10,; also recorded: AITP22,; also recorded: AITP24 | blocked by at least one of the antibodies | – | – | AITP11,; also recorded: AITP-12,; also recorded: AITP18,; also recorded: AITP20
7 | GVLSMDSSNVLQLIV (listed as Homo sapiens) [compound 44, GPIIIa residues 331-345] | – | – | AITP1,; also recorded: AITP3,; also recorded: AITP10,; also recorded: AITP18,; also recorded: AITP21, | – | – | – | AITP8,; also recorded: AITP24
8 | PGSYGDTCEKCPTCP (listed as Homo sapiens) [compound 70, GPIIIa residues 591-605] | – | – | AITP2,; also recorded: AITP7,; also recorded: AITP15,; also recorded: AITP20,; also recorded: AITP24 | – | – | – | None
9 | TTRGVSSCQQCLAVS (listed as Homo sapiens) [peptide 2, GPIIIa residues 6-20] | – | elicited proliferation from all samples | – | blocked by at least one of the antibodies | – | – | None
